≈ marks a conversion by molar mass, not a printed value. Where “and” joins values, the source holds several entries; their conditions need not be identical. Identical values can stand only once. Like-named read-outs stand apart in the source and are kept apart here.
Molecular target: T1, acetylcholinesterase (from human erythrocytes) (Homo sapiens, UniProt P22303)
T1 construct: acetylcholinesterase (from human erythrocytes, purchased from Sigma-Aldrich, Seoul, Korea); purchased Sigma-Aldrich, Seoul, Korea; host or cells: human erythrocytes (natural source)
Experiment: biochemical
Set-up: LogIC50 (best-fit value): unit not given here
Conditions: for inhibition (Mean): mean of three; for IC50 (best-fit value): unit not given
Procedure: The inhibitory activities of synthesized compounds were determined spectrophotometrically using acetylthiocholine iodide as substrate by following the method of ([Ellman et al., 1961]). Briefly, The assay solution consisted of 180 µL of 50 mM Tris-HCl buffer, pH 7.7, containing (0.1 M sodium chloride and 0.02 M magnesium chloride) and 20 µL of enzyme (AChE, EC 3.1.1.7), acetylcholinesterase (from human erythrocytes, purchased from Sigma-Aldrich, Seoul, Korea) solution (50 U per well); increasing concentrations of test compounds (10 µL) were added to the assay solution and pre incubated for 30 min at 4 °C. After that 5,5′ Dithiobis (2 nitrobenzoic acid) (0.3 mM, 20 µL) and acetylthiocholine iodide (1.8 mM, 20 µL) were added to the reaction mixture and incubated at 37 °C for 10 min, followed by the measurement of absorbance at 412 nm. For non-enzymatic reaction, the assays were carried out with a blank containing all components except acetylcholinesterase. The assay measurements were measured at 412 nm using a micro plate reader (OPTI Max Tunable; Molecular Devices, Sunnyvale, CA, USA) having a wave-length range from 340–850 nm; for 96 well plates. The reaction rates were compared and percent inhibition was calculated due to the presence of tested inhibitors. […] Each concentration was analyzed in three independent experiments run in triplicate. The IC50 values were calculated by nonlinear regression using GraphPad Prism 5.0.
The % of Inhibition of Acetylcholinesterase was calculated as following: Inhibition%=B−S∕B×100. Here, the B and S are the absorbance’s for the blank and samples.

[1] = each of three independent experiments, Raw Data of IC50 sheet, read-out: IC50, single experiment (converted)
[2] = from human erythrocytes, mean ± SEM, read-out: Acetylcholinesterase IC50 ± SEM
[3] = mean converted to uM, Raw Data of IC50 sheet, read-out: IC50
[4] = mean of three experiments, Raw Data of IC50 sheet, read-out: IC50 (Mean) (converted)
[5] = values as printed in abstract and discussion, read-out: acetylcholinesterase IC50
[6] = log(inhibitor) vs. response fit, single run, IC50 Raw Data sheet
[7] = log(inhibitor) vs. response fit, single run, unit inferred, IC50 Raw Data sheet, read-out: IC50 (best-fit value) (converted)
[8] = Conc: 0.0306373 (unit not given), Raw Data of IC50 sheet
[9] = Conc: 0.0612745 (unit not given), Raw Data of IC50 sheet
[10] = Conc: 0.122549 (unit not given), Raw Data of IC50 sheet
[11] = Conc: 0.245098 (unit not given), Raw Data of IC50 sheet
[12] = Conc: 0.490196 (unit not given), Raw Data of IC50 sheet
[13] = Conc: 0.980392 (unit not given), Raw Data of IC50 sheet
[14] = Conc: 1.96078 (unit not given), Raw Data of IC50 sheet
[15] = Conc: 3.92157 (unit not given), Raw Data of IC50 sheet
[16] = Concentration 0.0306373 (unit not given), IC50 Raw Data sheet
[17] = Concentration 0.0612745 (unit not given), IC50 Raw Data sheet
[18] = Concentration 0.122549 (unit not given), IC50 Raw Data sheet
[19] = Concentration 0.245098 (unit not given), IC50 Raw Data sheet
[20] = Concentration 0.490196 (unit not given), IC50 Raw Data sheet
[21] = Concentration 0.980392 (unit not given), IC50 Raw Data sheet
[22] = Concentration 1.96078 (unit not given), IC50 Raw Data sheet
[23] = Concentration 3.92157 (unit not given), IC50 Raw Data sheet
[24] = each of three independent experiments, Raw Data of IC50 sheet
[25] = mean of three experiments, Raw Data of IC50 sheet

T1 sequence (P22303 32-617 isoform P22303-2 limits assumed): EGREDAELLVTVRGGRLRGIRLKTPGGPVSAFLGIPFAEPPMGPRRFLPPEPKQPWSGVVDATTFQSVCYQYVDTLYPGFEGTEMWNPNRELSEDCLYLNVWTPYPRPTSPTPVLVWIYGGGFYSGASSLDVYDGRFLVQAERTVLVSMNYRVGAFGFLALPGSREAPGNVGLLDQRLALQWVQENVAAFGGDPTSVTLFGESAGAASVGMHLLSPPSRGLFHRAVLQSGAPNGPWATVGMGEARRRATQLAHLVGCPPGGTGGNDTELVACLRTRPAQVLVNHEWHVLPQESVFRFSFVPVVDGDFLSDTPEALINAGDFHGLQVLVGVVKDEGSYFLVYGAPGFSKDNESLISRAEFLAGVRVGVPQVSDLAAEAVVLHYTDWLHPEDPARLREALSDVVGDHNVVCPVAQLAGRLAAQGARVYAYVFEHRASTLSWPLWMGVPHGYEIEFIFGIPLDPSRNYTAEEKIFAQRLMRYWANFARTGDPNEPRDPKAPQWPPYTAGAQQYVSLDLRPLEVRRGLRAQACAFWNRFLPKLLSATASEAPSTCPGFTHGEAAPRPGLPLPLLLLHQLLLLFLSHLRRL

Row | Compound | IC50 [1] | IC50 [2] [µM] | IC50 [3] [µM] | IC50 [4] [µM] | LogIC50 (best-fit value) [6] | inhibition, single experiment [8] | inhibition (Mean) [8] | inhibition, single experiment [9] | inhibition (Mean) [9] | inhibition, single experiment [10] | inhibition (Mean) [10] | inhibition, single experiment [11] | inhibition (Mean) [11] | inhibition, single experiment [12] | inhibition (Mean) [12] | inhibition, single experiment [13] | inhibition (Mean) [13] | inhibition, single experiment [14] | inhibition (Mean) [14] | inhibition, single experiment [15] | also measured
1 | CCN(CCc1ccc(OC)cc1)S(=O)(=O)c1ccc(C)cc1 [Compound 5a, N-Ethyl-N-(4-methoxyphenethyl)-4-methylbenzensulfonamide] | 25 µM and 21 µM and 21.6 µM | 22.5 ± 1.23 | 22.5 | 22.5 | – | – | – | – | – | – | – | – | – | – | – | – | – | – | – | – | –
2 | CCCN(CCc1ccc(OC)cc1)S(=O)(=O)c1ccc(C)cc1 [Compound 5b, N-(4-Methoxyphenethyl)-4-methyl-N-(1-propyl)benzensulfonamide] | 4.77 µM and 3.7 µM and 4.01 µM | 4.16 ± 0.318 | 4.16 | 4.16 | – | – | – | – | – | – | – | – | – | – | – | – | – | – | – | – | IC50 [5]: 0.119 µM
3 | CCCCN(CCc1ccc(OC)cc1)S(=O)(=O)c1ccc(C)cc1 [Compound 5d, N-(1-Butyl)-N-(4-methoxyphenethyl)-4-methylbenzensulfonamide] | 0.0997 µM and 0.134 µM | 0.12 ± 0.0102 | 0.12 | 0.12 | -1.347 | – | – | – | – | – | – | – | – | – | – | – | – | – | – | – | IC50 [7]: 0.125 µM; IC50 [5]: 0.124 ± 0.021 µM
4 | CCCCCN(CCc1ccc(OC)cc1)S(=O)(=O)c1ccc(C)cc1 [Compound 5e, N-(4-Methoxyphenethyl)-4-methyl-N-(1-pentyl)benzensulfonamide] | 0.374 µM and 0.414 µM and 0.406 µM | 0.398 ± 0.0123 | 0.398 | 0.398 | -0.8411 | – | – | – | – | – | – | – | – | – | – | – | – | – | – | – | IC50 [7]: 0.384 µM
5 | CCCCCCCN(CCc1ccc(OC)cc1)S(=O)(=O)c1ccc(C)cc1 [Compound 5f, N-(1-Heptyl)-N-(4-methoxyphenethyl)-4-methylbenzensulfonamide] | 0.474 µM and 0.427 µM | 0.444 ± 0.015 | 0.444 | 0.444 | -0.759 | – | – | – | – | – | – | – | – | – | – | – | – | – | – | – | IC50 [7]: 0.432 µM
6 | COc1ccc(CCN(CCCc2ccccc2)S(=O)(=O)c2ccc(C)cc2)cc1 [Compound 5g, N-(4-Methoxyphenethyl)-4-methyl-N-(3-phenyl-1-propyl) benzensulfonamide] | – | 0.798 ± 0.0138 | 0.798 | – | -0.4313 | 16.111 and 16.8631 | 16.1834 | 30.2326 and 29.5369 | 29.6527 | 32.9175 and 33.3333 | 32.8451 | 43.5555 and 42.1199 | 42.7571 | 49.3413 and 49.9987 | 49.6905 | 59.3325 and 58.7749 | 59.2851 | 66.9964 and 65.1126 | 66.1998 | 74.8965 and 74.0186 | inhibition (Mean) [15]: 74.3992; % inhibition [16]: 15.576%; % inhibition [17]: 32.2845%; % inhibition [18]: 29.1886%; % inhibition [19]: 42.5959%; % inhibition [20]: 49.7315%; % inhibition [21]: 59.7479%; % inhibition [22]: 66.4906%; % inhibition [23]: 74.2824%; IC50, single experiment [24]: 0.3267 µg/mL and 0.3464 µg/mL and 0.341 µg/mL; IC50 (best-fit value) [6]: 0.3704; IC50 (Mean) [25]: 0.338 µg/mL (≈ 0.798 µM)
7 | COc1ccc(CCN(Cc2ccccc2C)S(=O)(=O)c2ccc(C)cc2)cc1 [Compound 5h, N-(4-Methoxyphenethyl)-4-methyl-N-(2-methylbenzyl) benzensulfonamide] | – | 1.011 ± 0.0053 | 1.01 | – | -0.3874 | 41.4444 and 41.0099 | 40.984 | 45.3557 and 45.1011 | 44.9216 | 50.9025 and 51.1299 | 51.0341 | 63.8777 and 63.001 | 63.2456 | 71.1111 and 70.9965 | 70.8325 | 78.3125 and 78.8745 | 78.5659 | 83.9784 and 86.5532 | 85.3051 | 96.8547 and 96.1111 | inhibition (Mean) [15]: 96.3251; % inhibition [16]: 40.4976%; % inhibition [17]: 44.3081%; % inhibition [18]: 51.0699%; % inhibition [19]: 62.858%; % inhibition [20]: 70.3899%; % inhibition [21]: 78.5107%; % inhibition [22]: 85.3837%; % inhibition [23]: 96.0094%; IC50, single experiment [24]: 0.4151 µg/mL and 0.4171 µg/mL; IC50 (best-fit value) [6]: 0.4098; IC50 (Mean) [25]: 0.414 µg/mL (≈ 1.01 µM)
8 | COc1ccc(CCN(Cc2cccc(C)c2)S(=O)(=O)c2ccc(C)cc2)cc1 [Compound 5i, N-(4-Methoxyphenethyl)-4-methyl-N-(3-methylbenzyl) benzensulfonamide] | – | 0.47 ± 0.0109 | 0.47 | – | -0.7362 | 38.1497 and 38.771 | 38.1601 | 45.4473 and 46.02 | 45.6873 | 56.7855 and 56.3378 | 56.078 | 70.5479 and 70.7214 | 71.0257 | 74.2589 and 75.8888 | 75.1591 | 78.1111 and 76.8876 | 77.3479 | 87.2875 and 87.9775 | 87.5273 | 97.778 and 97.9734 | inhibition (Mean) [15]: 97.9676; % inhibition [16]: 37.5596%; % inhibition [17]: 45.5947%; % inhibition [18]: 55.1106%; % inhibition [19]: 71.8079%; % inhibition [20]: 75.3297%; % inhibition [21]: 77.0449%; % inhibition [22]: 87.3169%; % inhibition [23]: 98.1514%; IC50, single experiment [24]: 0.1949 µg/mL and 0.1984 µg/mL; IC50 (best-fit value) [6]: 0.1836; IC50 (Mean) [25]: 0.1923 µg/mL (≈ 0.47 µM)
9 | COc1ccc(CCN(Cc2ccc(C)cc2)S(=O)(=O)c2ccc(C)cc2)cc1 [Compound 5j, N-(4-Methoxyphenethyl)-4-methyl-N-(4-methylbenzyl) benzensulfonamide] | – | 1.11 ± 0.0999 | 1.11 | – | -0.3835 | 17.2222 and 17.1022 | 17.3151 | 31.4199 and 30.0777 | 30.8306 | 36.8749 and 37.0114 | 36.7468 | 48.1258 and 49.804 | 49.2304 | 54.7822 and 55.2287 | 55.0656 | 59.1009 and 58.8888 | 59.2947 | 65.9226 and 65.7652 | 65.7178 | 90.0712 and 89.7746 | inhibition (Mean) [15]: 89.7021; % inhibition [16]: 17.621%; % inhibition [17]: 30.9943%; % inhibition [18]: 36.3541%; % inhibition [19]: 49.7613%; % inhibition [20]: 55.1859%; % inhibition [21]: 59.8945%; % inhibition [22]: 65.4657%; % inhibition [23]: 89.2606%; IC50, single experiment [24]: 0.5355 µg/mL and 0.4119 µg/mL; IC50 (best-fit value) [6]: 0.4136; IC50 (Mean) [25]: 0.4537 µg/mL (≈ 1.11 µM)
